Reference: patent US9962351B2, “Small molecule substance for improving sensitivity of bacteria to antibiotics” (priority 2012, dated 2018)
≈ marks a conversion by molar mass, not a printed value. Like-named read-outs stand apart in the source and are kept apart here.

Experiments:
[1] = system: antibiotic-resistant Escherichia coli (passaged K12 BW25113); experiment: MIC of single colony after 10 serial passages with antibiotic at 1/2 MIC; type: cell-based; settings: for MIC: Escherichia coli, BW25113, read-out: MIC10; for MIC10/MIC0: ratio of MIC after to before passage
Experimental: (§1) Escherichia coli is a bacterium that is most commonly found in the gut of human and animal. It mainly parasitizes in the intestines, and accounts for about 1% of the intestine bacteria. Minimum inhibitory concentration (MIC) of Escherichia coli K12 BW25113 for ten kinds of antibiotics was detected with double dilution method. Escherichia coli K12 BW25113 of 10^5 colony forming unit/ml was cultured respectively in Luria-Bertani (LB) liquid medium separately with each of ten antibiotics at the concentration of ½ MIC at 37° C., and was serially passaged 10 times, so that the MIC of single colony was determined.

[2] = system: Escherichia coli K12 BW25113; experiment: MIC by double dilution method, initial bacteria; type: cell-based; settings: for MIC: Escherichia coli, BW25113, read-out: MIC0
Experimental: as §1

[3] = system: antibiotic-resistant bacteria in kidneys; experiment: Mouse urinary tract infection model, bacterial content in kidneys; type: in vivo; settings: mice, tail i.v. twice-daily for 3 days; glutamine 100 mg kg−1, glucose 100 mg kg−1, ampicillin 320 mg kg−1 as present; saline group 16750
Experimental: (§2) In vivo experiments in mice, female mice (5 weeks, weighing 18-20 g) received surgical implantation in the urinary tract of PESO catheter tubes. The mice were randomly divided into six groups in 48 h after the surgery, five each group. The six groups included treatment with saline (group 1), 100 mg kg^−1 glutamine (group 2), 320 mg kg^−1 ampicillin (group 3), 100 mg kg^−1 glutamine plus 320 mg kg^−1 ampicillin (group 4), 100 mg kg^−1 glucose plus 320 mg kg^−1 ampicillin (group 5), and 100 mg kg^−1 glutamine and 100 mg kg^−1 glucose plus 320 mg kg^−1 ampicillin (group 6) by tail intravenous injection for 3 days, twice-daily. Catheter tubes were extracted in 24 hours after the last treatment. To dislodge biofilm cells, catheters were suspended in saline solution with ultrasonic. Serial dilutions and spot-plating were performed to determine the bacterial survival rate in biofilm. The survival rate was calculated as: viable counts in treatment group/viable counts in control group×100%.
Meanwhile, kidneys of mice were homogeneous with appropriate amount of saline. Bacterial content in kidneys was determined by plate counting method.

[4] = system: ampicillin-resistant Escherichia coli (AMP-R); type: cell-based
Experimental: Bacterium cultures of 20 mL were collected and centrifuged at 8,000 rpm for 5 minutes. The bacterial pellets were washed with equal volume of 0.85% saline solution, suspended in M9 medium containing 10 mM sodium acetate and then adjusted to OD600 of 0.5. […] These mixtures were cultured in a shaker at 200 rpm at 37° C. for 4 h. Then 100 μL of bacterial suspension was used for bacterial plate counting.
To investigate the effect of antibiotic dose on the sensitivity of bacteria to antibiotics by glutamine, 20 mM glutamine and 20, 40, 80, 160, 240, 320 and 400 μg/mL ampicillin were used to treat ampicillin-resistant Escherichia coli for 4 hours, and then bacterial plate counting was conducted. The survival rates of bacteria with and without glutamine were compared at the same antibiotic concentration.
To investigate the effect of exposure time on the killing efficiency, the viable counts of bacteria were counted during 1-8 hours after spiked with 20 mM glutamine and 160 μg/mL ampicillin.
To investigate the effect of glutamine concentration on killing efficiency and the optimum bactericidal concentrations, different concentrations of glutamine were added to 160 μg/mL ampicillin. The number of live bacteria was counted after 4 hours. The survival rate was calculated according to the formula below: viable counts at different concentration of glutamine/viable counts without glutamine×100%.
Single clone of ampicillin-resistant Escherichia coli was selected and inoculated in 100 mL LB medium and cultured at 200 rpm at 37° C. for 16 hours. Bacterial suspension of 20 mL was collected and centrifuged at 8,000 rpm for 5 min. The resulting bacterial pellets were washed with equal volume of 0.85% saline solution, suspended in M9 medium containing 10 mM sodium acetate and then adjusted to […] of 0.5. Aliquots of 5 mL bacterial cells were transferred to test tubes for further application.
The sample was added with 160 μg/mL ampicillin and 0-20 Mm glucose, then cultured in a shaker at 200 rpm at 37° C. for 4 hours. The cell number was counted and survival rate was calculated. […]

[5] = system: ampicillin-resistant Escherichia coli biofilm; experiment: Biofilm on PE-50 catheters in vitro, survival rate; type: cell-based; settings: 6 hours
Experimental: (§3) Single clone of ampicillin-resistant Escherichia coli was selected and incubated in LB medium overnight, then transferred into 2 mL fresh LB medium according to the proportion of 1:200 dilutions and transferred to 6 mm ultraviolet sterilized PE-50 catheters. The catheters were inoculated in 1 mL LB at 37 for 24 h. The culture medium was changed every 24 hours for 3 days. The biofilm of ampicillin-resistant bacteria in PE50 catheters were washed with 1 mL sterile phosphate-buffered saline five times to remove loosely adherent cells, and then transferred to 1.5 mL EP tubes.
The test was divided into six groups: saline solution control, 20 mM glutamine, 160 μg/mL ampicillin, 160 μg/mL ampicillin plus 20 mM glutamine, 160 μg/mL ampicillin plus 20 mM glucose, 160 μg/mL ampicillin plus 20 mM glutamine and 20 mM glucose. The catheters were cultured in a shaker at 200 rpm at 37 for 6 hours. The bacterial biofilm was removed from catheters with sonication for 10 minutes. Serial dilutions and spot-plating were performed to determine the cell number. The bacterial survival rate was calculated as: viable counts in treatment group/viable counts in control group×100%.

[6] = system: Escherichia coli K12 BW25113 (control bacteria); experiment: Viable counts and survival rate of control bacteria; type: cell-based; settings: 160 μg/mL ampicillin, without or with 20 mM glutamine, 4 hours
Experimental: The viable counts and survival rate of bacteria were calculated after added with 20 mM glutamine and 160 μg/mL ampicillin for 4 hours.
The viable counts and survival rate of bacteria were calculated after added with 20 mM glutamine and 4 kinds of penicillins (does for control bacteria were: ampicillin 25 μg/mL, penicillin G 200 μg/mL, amoxicillin 20 μg/mL, carbenicillin 100 μg/mL; does for antibiotic resistant bacteria were: ampicillin 320 μg/mL, penicillin G 2560 μg/mL, amoxicillin 512 μg/mL, carbenicillin 320 μg/mL) for 4 hours.
The viable counts and survival rate of bacteria were calculated after added with 20 mM glutamine and antibiotics at the concentration of 8 times of MIC for 4 hours.

[7] = system: ampicillin-resistant Escherichia coli biofilm; experiment: Mouse urinary tract catheter biofilm model, bacterial survival rate in biofilm; type: in vivo; settings: mice, tail intravenous injection twice-daily for 3 days; glutamine 100 mg kg−1, glucose 100 mg kg−1, ampicillin 320 mg kg−1 as present
Experimental: as §3
as §2, with “To dislodge biofilm cells, catheters were suspended in saline solution with ultrasonic. Serial dilutions and spot-plating were performed to determine the bacterial survival rate in biofilm.” left out

`CN(C)[C@@H]1C(O)=C(C(N)=O)C(=O)[C@@]2(O)C(O)=C3C(=O)c4c(O)cccc4[C@@](C)(O)[C@H]3C[C@@H]12` [TET, tetracycline] was tested, and the MIC [1] was 200 µg/mL and the MIC [2] was 3.12 µg/mL (≈ 7.03 µM).
`O=C(N[C@H](CO)[C@H](O)c1ccc([N+](=O)[O-])cc1)C(Cl)Cl` [CAP, chloramphenicol] gave an MIC [1] of 435 µg/mL, an MIC10/MIC0 [1] of 64 and an MIC [2] of 6.8 µg/mL (≈ 21 µM).
gentamicin showed an MIC10 ([1]; after 10 serial passages in LB with the respective antibiotic at 1/2 MIC, 37° C.) of 80 µg/mL, an MIC10/MIC0 [1] of 64 and an MIC0 ([2]; before passage) of 1.25 µg/mL.
For `CC[C@H]1OC(=O)[C@H](C)[C@@H](O[C@H]2C[C@@](C)(OC)[C@@H](O)[C@H](C)O2)[C@H](C)[C@@H](O[C@@H]2O[C@H](C)C[C@H](N(C)C)[C@H]2O)[C@](C)(O)C[C@@H](C)C(=O)[C@H](C)[C@@H](O)[C@]1(C)O` [ER, erythromycin], the MIC [1] was 3200 µg/mL, the MIC10/MIC0 [1] was 64 and the MIC [2] was 50 µg/mL (≈ 68.1 µM).
For `[H]/N=C(/N)N[C@H]1[C@H](O)[C@@H](O)[C@H](O[C@@H]2O[C@@H](C)[C@](O)(C=O)[C@H]2O[C@@H]2O[C@@H](CO)[C@H](O)[C@@H](O)[C@@H]2NC)[C@@H](N/C(N)=N\[H])[C@@H]1O` [SM, streptomycin], the MIC [1] was 400 µg/mL, the MIC10/MIC0 [1] was 64 and the MIC [2] was 6.25 µg/mL (≈ 10.7 µM).
`CC(C)(O/N=C(\C(=O)N[C@@H]1C(=O)N2C(C(=O)[O-])=C(C[n+]3ccccc3)CS[C@H]12)c1csc(N)n1)C(=O)O` [CAZ, ceftazidime] was tested, and the MIC [1] was 8 µg/mL and the MIC [2] was 0.125 µg/mL (≈ 0.229 µM).
In the case of `CC1(C)S[C@@H]2[C@H](NC(=O)[C@H](N)c3ccccc3)C(=O)N2[C@H]1C(=O)O` [ampicillin], the “bacterial content in kidneys” value [3] is reported as 9129 cell/g, the survival rate ([4]; 20 μg/mL ampicillin, without or with 20 mM glutamine, 4 hours) is reported as 99.81% and the survival rate ([4]; 40 μg/mL ampicillin, without or with 20 mM glutamine, 4 hours) is reported as 97.27%. It also gave a survival rate ([4]; 80 μg/mL ampicillin, without or with 20 mM glutamine, 4 hours) of 95.55%, a survival rate ([4]; 160 μg/mL ampicillin without glutamine, 7 hours) of 74% and a survival rate ([4]; 160 μg/mL ampicillin without glutamine, after 8 hours) of 66.19%. The “viable counts of bacteria” value ([4]; 160 μg/mL ampicillin without glutamine, during 1-4 hours) was “remained unchanged”, the survival rate ([4]; 160 μg/mL ampicillin, without glucose or with increasing glucose (0-20 Mm), 4 hours) was 94.33% and the survival rate ([4]; 160 μg/mL ampicillin, without glutamine or with increasing glutamine concentration, 4 hours) was 94.33%. For the same compound, the survival rate ([4]; 160 μg/mL ampicillin, without or with 20 mM glutamine, 4 hours) was 93.72%, the survival rate ([4]; 240 μg/mL ampicillin, without or with 20 mM glutamine, 4 hours) was 86.72% and the survival rate ([4]; 320 μg/mL ampicillin, without or with 20 mM glutamine, 4 hours) was 83.51%. The survival rate ([4]; 400 μg/mL ampicillin, without or with 20 mM glutamine, 4 hours) was 67.15%, the “elimination of biofilm by single agent” value ([5]; 20 mM glutamine or 160 μg/mL ampicillin alone) was “did not eliminate the antibiotic-resistant bacterium biofilm” and the “bacterial survival rate in biofilm (treatment group/saline control)” value ([5]; 20 mM glutamine, 160 μg/mL ampicillin, 20 mM glucose as present) was 92.84%. It also gave an MIC [1] of 400 µg/mL, an MIC10/MIC0 [1] of 64 and a survival rate [6] of 74.22%. The MIC [2] was 6.25 µg/mL (≈ 17.9 µM) and the “bacterial survival rate in catheter biofilm in comparison with saline control” value [7] was 76.81%.
For `NC[C@H]1O[C@H](O[C@H]2[C@H](O)[C@@H](O[C@H]3O[C@H](CO)[C@@H](O)[C@H](N)[C@H]3O)[C@H](N)C[C@@H]2N)[C@H](O)[C@@H](O)[C@@H]1O` [KAN, kanamycin], the MIC [1] was 400 µg/mL, the MIC10/MIC0 [1] was 64 and the MIC [2] was 6.25 µg/mL (≈ 12.9 µM).
`CCn1cc(C(=O)O)c(=O)c2ccc(C)nc21` [NA, nalidixic acid] gave an MIC [1] of 320 µg/mL, an MIC10/MIC0 [1] of 64 and an MIC [2] of 5 µg/mL (≈ 21.5 µM).
`CNC1CCCN(c2c(F)cc3c(=O)c(C(=O)O)cn(C4CC4)c3c2OC)C1` (stereo not drawn) [BLFX, balofloxacin] showed an MIC [1] of 16 µg/mL, an MIC10/MIC0 [1] of 64 and an MIC [2] of 0.25 µg/mL (≈ 0.642 µM).
